# Source: the kinase profiling compilation of Christmann-Franck et al. (2016)
# What was measured:
# Experiment in all cases: KINOMEscan competition binding
# Settings in all cases: compound 1.0 µM
# [1] = target: BMPR2 (human) (UniProt Q13873)
# [2] = target: BTK (human) (UniProt Q06187)
# [3] = target: CDK14 (human) (UniProt O94921)
# [4] = target: CSNK1D (human) (UniProt P48730)
# [5] = target: CSNK1G3 (human) (UniProt Q9Y6M4)
# [6] = target: DDR2 (human) (UniProt Q16832)
# [7] = target: EPHA4 (human) (UniProt P54764)
# [8] = target: HIPK2 (human) (UniProt Q9H2X6)
# HIPK2 (human), sequence (Q9H2X6 whole entry, looked up): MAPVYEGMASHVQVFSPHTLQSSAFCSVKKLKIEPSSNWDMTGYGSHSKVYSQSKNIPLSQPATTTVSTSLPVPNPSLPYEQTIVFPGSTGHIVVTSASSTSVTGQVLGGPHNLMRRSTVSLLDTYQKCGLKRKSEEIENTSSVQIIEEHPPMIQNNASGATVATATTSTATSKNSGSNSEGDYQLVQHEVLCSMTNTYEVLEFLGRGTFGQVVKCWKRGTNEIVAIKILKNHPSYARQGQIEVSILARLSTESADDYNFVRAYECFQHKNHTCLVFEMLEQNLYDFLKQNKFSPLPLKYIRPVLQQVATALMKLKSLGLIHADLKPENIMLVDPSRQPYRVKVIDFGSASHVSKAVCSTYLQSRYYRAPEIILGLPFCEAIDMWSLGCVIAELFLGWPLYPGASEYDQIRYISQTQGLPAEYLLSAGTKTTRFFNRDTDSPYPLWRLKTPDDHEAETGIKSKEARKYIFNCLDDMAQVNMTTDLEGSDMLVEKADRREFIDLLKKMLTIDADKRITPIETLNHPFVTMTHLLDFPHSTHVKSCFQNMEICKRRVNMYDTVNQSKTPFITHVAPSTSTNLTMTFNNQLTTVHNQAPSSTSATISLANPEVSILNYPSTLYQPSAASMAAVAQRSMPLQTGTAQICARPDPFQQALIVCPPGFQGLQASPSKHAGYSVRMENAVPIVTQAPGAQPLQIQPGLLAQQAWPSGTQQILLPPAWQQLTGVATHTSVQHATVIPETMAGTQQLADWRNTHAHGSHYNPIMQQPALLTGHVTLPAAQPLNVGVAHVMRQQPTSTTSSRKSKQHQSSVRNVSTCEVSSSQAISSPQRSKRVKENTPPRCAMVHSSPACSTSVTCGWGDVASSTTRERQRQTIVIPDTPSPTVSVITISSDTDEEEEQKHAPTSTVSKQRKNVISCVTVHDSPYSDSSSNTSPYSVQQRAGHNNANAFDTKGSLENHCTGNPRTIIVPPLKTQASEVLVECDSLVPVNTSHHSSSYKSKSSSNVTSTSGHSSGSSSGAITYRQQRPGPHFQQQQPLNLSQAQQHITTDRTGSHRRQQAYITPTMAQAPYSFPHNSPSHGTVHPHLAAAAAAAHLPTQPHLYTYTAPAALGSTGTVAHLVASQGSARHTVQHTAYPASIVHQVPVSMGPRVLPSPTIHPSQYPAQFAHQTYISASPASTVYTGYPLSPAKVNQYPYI
# [9] = target: IGF1R (human) (UniProt P08069)
# [10] = target: INSRR (human) (UniProt P14616)
# [11] = target: JAK2 JH1 catalytic (human) (UniProt O60674)
# [12] = tested on: KIT (human), P10721 [A829P]
# [13] = target: LATS1 (human) (UniProt O95835)
# [14] = target: MAP3K5 (human) (UniProt Q99683)
# [15] = target: MAPK3 (human) (UniProt P27361)
# MAPK3 (human), sequence (P27361 whole entry, looked up): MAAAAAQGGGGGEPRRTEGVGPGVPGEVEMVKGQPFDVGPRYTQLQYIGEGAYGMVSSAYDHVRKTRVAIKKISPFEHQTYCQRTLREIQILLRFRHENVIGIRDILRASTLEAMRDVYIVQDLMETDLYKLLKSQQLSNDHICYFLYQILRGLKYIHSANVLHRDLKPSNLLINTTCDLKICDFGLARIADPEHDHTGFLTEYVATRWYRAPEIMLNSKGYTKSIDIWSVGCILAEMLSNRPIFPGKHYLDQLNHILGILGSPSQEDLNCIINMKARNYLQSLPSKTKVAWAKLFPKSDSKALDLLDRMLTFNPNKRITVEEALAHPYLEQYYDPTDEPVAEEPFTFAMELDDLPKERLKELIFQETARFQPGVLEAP
# [16] = target: MELK (human) (UniProt Q14680)
# MELK (human), sequence (Q14680 whole entry, looked up): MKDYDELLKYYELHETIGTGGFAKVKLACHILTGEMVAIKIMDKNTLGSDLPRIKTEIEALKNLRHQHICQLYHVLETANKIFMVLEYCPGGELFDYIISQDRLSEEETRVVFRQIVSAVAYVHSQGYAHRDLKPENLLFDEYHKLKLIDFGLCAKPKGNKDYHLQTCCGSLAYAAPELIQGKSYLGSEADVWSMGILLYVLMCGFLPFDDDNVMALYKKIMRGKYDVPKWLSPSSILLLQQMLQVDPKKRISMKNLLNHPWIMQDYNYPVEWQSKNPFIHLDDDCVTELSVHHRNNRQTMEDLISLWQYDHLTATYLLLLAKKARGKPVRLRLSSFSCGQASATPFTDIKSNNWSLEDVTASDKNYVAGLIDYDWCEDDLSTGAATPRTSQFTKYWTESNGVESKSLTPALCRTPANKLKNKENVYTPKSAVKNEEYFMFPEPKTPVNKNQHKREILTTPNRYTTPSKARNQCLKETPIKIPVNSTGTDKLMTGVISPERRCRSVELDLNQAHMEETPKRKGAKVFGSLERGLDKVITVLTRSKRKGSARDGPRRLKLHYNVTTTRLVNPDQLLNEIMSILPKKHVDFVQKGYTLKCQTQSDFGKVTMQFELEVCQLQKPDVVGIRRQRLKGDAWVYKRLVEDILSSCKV
# [17] = target: MERTK (human) (UniProt Q12866)
# [18] = target: MYLK2 (human) (UniProt Q9H1R3)
# [19] = target: MYLK3 (human) (UniProt Q32MK0)
# MYLK3 (human), sequence (Q32MK0 whole entry, looked up): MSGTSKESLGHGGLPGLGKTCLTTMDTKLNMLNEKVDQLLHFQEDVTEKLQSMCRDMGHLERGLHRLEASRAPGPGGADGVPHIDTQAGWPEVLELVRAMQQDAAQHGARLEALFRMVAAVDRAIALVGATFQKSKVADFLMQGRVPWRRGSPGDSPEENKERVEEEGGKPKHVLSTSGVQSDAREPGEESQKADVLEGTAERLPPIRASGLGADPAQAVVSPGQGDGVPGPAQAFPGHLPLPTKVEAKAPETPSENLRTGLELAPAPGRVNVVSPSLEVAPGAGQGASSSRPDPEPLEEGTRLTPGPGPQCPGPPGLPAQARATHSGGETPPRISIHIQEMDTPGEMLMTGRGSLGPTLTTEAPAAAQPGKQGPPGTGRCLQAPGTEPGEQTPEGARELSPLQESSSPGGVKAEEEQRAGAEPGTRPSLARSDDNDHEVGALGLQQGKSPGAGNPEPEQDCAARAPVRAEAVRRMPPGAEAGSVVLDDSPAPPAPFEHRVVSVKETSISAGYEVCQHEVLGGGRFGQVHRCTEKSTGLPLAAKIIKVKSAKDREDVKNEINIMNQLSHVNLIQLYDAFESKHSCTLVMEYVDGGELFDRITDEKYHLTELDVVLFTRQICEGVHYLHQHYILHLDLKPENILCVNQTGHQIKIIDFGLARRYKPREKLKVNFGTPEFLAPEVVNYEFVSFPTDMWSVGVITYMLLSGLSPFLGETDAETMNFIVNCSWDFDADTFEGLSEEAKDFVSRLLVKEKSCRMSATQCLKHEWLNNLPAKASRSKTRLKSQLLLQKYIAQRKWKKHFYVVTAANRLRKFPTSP
# [20] = target: MYLK4 (human) (UniProt Q86YV6)
# MYLK4 (human), sequence (Q86YV6 whole entry, looked up): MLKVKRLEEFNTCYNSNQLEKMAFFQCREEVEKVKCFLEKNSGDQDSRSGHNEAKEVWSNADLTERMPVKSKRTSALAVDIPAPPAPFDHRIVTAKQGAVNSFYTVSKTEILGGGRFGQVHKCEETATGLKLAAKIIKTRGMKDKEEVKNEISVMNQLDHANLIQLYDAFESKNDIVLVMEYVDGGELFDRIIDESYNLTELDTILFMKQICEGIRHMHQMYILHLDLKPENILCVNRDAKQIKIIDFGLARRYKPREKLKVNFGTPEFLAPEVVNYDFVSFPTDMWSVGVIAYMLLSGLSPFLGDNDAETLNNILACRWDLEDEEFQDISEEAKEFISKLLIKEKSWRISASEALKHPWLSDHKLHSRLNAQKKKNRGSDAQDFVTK
# [21] = target: NEK11 (human) (UniProt Q8NG66)
# [22] = target: NEK3 (human) (UniProt P51956)
# [23] = target: NUAK2 (human) (UniProt Q9H093)
# [24] = target: PAK3 (human) (UniProt O75914)
# [25] = tested on: PIK3CA (human), P42336 [E545K]
# [26] = tested on: PIK3CA (human), P42336 [H1047L]
# [27] = tested on: PIK3CA (human), P42336 [M1043I]
# [28] = target: PLK3 (human) (UniProt Q9H4B4)
# [29] = target: PRKAA2 (human) (UniProt P54646)
# [30] = target: PRKACA (human) (UniProt P17612)
# [31] = target: PRKCI (human) (UniProt P41743)
# [32] = target: PRPF4B (human) (UniProt Q13523)
# [33] = target: ROCK1 (human) (UniProt Q13464)
# [34] = target: RPS6KA5 KD1 (human) (UniProt O75582)
# [35] = target: SIK1 (human) (UniProt P57059)
# [36] = target: SRMS (human) (UniProt Q9H3Y6)
# [37] = target: STK25 (human) (UniProt O00506)
# [38] = target: STK32B (human) (UniProt Q9NY57)
# [39] = target: TAOK3 (human) (UniProt Q9H2K8)
# [40] = target: TEK (human) (UniProt Q02763)
# TEK (human), sequence (Q02763 whole entry, looked up): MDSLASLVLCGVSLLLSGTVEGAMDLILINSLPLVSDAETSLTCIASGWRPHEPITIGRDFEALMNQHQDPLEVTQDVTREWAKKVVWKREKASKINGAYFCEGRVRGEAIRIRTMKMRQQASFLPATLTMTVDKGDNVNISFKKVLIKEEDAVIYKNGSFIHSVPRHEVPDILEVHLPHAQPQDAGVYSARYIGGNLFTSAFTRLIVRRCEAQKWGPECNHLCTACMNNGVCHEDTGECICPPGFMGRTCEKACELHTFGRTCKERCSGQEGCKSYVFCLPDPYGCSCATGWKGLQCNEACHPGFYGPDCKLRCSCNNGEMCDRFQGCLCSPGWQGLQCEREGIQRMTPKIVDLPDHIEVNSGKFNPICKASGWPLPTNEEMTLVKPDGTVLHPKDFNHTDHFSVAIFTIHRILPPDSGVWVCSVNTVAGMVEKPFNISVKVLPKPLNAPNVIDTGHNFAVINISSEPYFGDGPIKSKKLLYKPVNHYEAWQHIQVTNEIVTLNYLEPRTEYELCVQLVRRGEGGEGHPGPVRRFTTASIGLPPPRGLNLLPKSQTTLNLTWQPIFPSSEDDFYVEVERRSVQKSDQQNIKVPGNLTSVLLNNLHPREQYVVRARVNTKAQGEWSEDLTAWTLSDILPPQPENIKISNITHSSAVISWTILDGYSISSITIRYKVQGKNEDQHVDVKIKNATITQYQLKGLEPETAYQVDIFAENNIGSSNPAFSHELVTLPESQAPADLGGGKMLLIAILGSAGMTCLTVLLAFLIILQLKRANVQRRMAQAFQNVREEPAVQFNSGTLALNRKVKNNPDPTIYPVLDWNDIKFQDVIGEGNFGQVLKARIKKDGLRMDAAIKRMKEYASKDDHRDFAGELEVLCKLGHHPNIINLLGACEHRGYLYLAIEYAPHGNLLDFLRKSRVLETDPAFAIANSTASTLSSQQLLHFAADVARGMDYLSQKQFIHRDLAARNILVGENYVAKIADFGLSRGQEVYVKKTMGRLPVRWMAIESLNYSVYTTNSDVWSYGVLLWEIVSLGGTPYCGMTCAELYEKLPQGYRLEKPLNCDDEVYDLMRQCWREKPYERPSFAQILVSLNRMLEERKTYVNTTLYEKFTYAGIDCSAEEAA
# [41] = target: TTK (human) (UniProt P33981)
# [42] = target: ULK2 (human) (UniProt Q8IYT8)
# [43] = target: VRK2 (human) (UniProt Q86Y07)
# CDK14 (human), sequence (O94921 whole entry, looked up): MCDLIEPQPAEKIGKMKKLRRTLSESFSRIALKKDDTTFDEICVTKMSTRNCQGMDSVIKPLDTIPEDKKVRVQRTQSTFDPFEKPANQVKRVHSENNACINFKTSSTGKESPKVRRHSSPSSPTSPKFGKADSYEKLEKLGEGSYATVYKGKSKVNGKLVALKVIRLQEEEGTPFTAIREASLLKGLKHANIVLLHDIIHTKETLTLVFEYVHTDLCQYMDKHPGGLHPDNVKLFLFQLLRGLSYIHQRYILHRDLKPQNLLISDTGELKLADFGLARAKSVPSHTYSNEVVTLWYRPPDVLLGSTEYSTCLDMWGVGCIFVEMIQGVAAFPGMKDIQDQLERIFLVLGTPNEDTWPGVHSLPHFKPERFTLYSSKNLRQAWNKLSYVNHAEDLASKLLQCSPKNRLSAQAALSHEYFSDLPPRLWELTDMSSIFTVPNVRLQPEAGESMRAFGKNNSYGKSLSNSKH
compound,measurement,setting,value
COCCNCCCn1c(C(=O)CF)c(-c2ccc(C)cc2)c2c(N)ncnc21,"kinase still bound, per cent of control",[1],72%
same,"kinase still bound, per cent of control",[2],87%
same,"kinase still bound, per cent of control",[3],100%
same,"kinase still bound, per cent of control",[4],82%
same,"kinase still bound, per cent of control",[5],98%
same,"kinase still bound, per cent of control",[6],99%
same,"kinase still bound, per cent of control",[7],96%
same,"kinase still bound, per cent of control",[8],94%
same,"kinase still bound, per cent of control",[9],100%
same,"kinase still bound, per cent of control",[10],100%
same,"kinase still bound, per cent of control",[11],100%
same,"kinase still bound, per cent of control",[12],85%
same,"kinase still bound, per cent of control",[13],100%
same,"kinase still bound, per cent of control",[14],100%
same,"kinase still bound, per cent of control",[15],98%
same,"kinase still bound, per cent of control",[16],95%
same,"kinase still bound, per cent of control",[17],99%
same,"kinase still bound, per cent of control",[18],95%
same,"kinase still bound, per cent of control",[19],96%
same,"kinase still bound, per cent of control",[20],86%
same,"kinase still bound, per cent of control",[21],63%
same,"kinase still bound, per cent of control",[22],70%
same,"kinase still bound, per cent of control",[23],96%
same,"kinase still bound, per cent of control",[24],100%
same,"kinase still bound, per cent of control",[25],100%
same,"kinase still bound, per cent of control",[26],100%
same,"kinase still bound, per cent of control",[27],100%
same,"kinase still bound, per cent of control",[28],91%
same,"kinase still bound, per cent of control",[29],75%
same,"kinase still bound, per cent of control",[30],100%
same,"kinase still bound, per cent of control",[31],75%
same,"kinase still bound, per cent of control",[32],100%
same,"kinase still bound, per cent of control",[33],98%
same,"kinase still bound, per cent of control",[34],79%
same,"kinase still bound, per cent of control",[35],98%
same,"kinase still bound, per cent of control",[36],99%
same,"kinase still bound, per cent of control",[37],100%
same,"kinase still bound, per cent of control",[38],98%
same,"kinase still bound, per cent of control",[39],100%
same,"kinase still bound, per cent of control",[40],100%
same,"kinase still bound, per cent of control",[41],95%
same,"kinase still bound, per cent of control",[42],90%
same,"kinase still bound, per cent of control",[43],100%
